In patent US11415579B2, “Assay for measuring a rate of reaction between a target and a ligand candidate” (Imperial College Innovations Ltd., priority 2016, dated 2022):

Assays:
Cdk2(S276C) (C177A) = molecular target: T1, Cdk2(S276C) (C177A) (Homo sapiens, UniProt P24941, C177A/S276C); test: Kinetic thiol consumption assay with Cdk2 mutant S276C; assay type: binding; parameters: key to Rate enhancement, Cdk2 S276C: rate constant with Cdk2 ÷ rate constant with model thiol (fold); conditions: additional mutation C177A; for Rate constant with Cdk2 S276C: Protein: Cdk2, cysteine position S276C, in h^-1
T1 construct: poly-histidine; made in house; host or cells: E. coli
Outline: (§1)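 5 μM thiol, degassed phosphate pH 8, 2% v/v immobilized TCEP beads; 1 h RT; fluorescence ex 380/em 470 nm; normalized vs DMSO/thiol-only; first-order exponential decay fit → rate constant; Cdk2 k / model-thiol k = rate enhancement per acrylamide.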

Cdk2(R122C) (C177A) = molecular target: T2, Cdk2(R122C) (C177A) (Homo sapiens, UniProt P24941, C177A/R122C); test: Kinetic thiol consumption assay with Cdk2 mutant R122C; assay type: binding; parameters: key to Rate enhancement, Cdk2 R122C: rate constant with Cdk2 ÷ rate constant with model thiol (fold); conditions: additional mutation C177A; for Rate constant with Cdk2 R122C: Protein: Cdk2, cysteine position R122C, in h-1
T2 construct: poly-histidine; made in house; host or cells: E. coli
Outline: as §1

Cdk2(N272C) (C177A) = molecular target: T3, Cdk2(N272C) (C177A) (Homo sapiens, UniProt P24941, C177A/N272C); test: Kinetic thiol consumption assay with Cdk2 mutant N272C; assay type: binding; parameters: key to Rate enhancement, Cdk2 N272: rate constant with Cdk2 ÷ rate constant with model thiol (fold); conditions: for Rate enhancement, Cdk2 N272: Cdk2 N272, additional mutation C177A; for Rate constant with Cdk2 N272C: Protein: Cdk2, cysteine position N272C, additional mutation C177A, in h^-1
T3 construct: poly-histidine; made in house; host or cells: E. coli
Outline: as §1

Cdk2(T182C) (C177A) = molecular target: T4, Cdk2(T182C) (C177A) (Homo sapiens, UniProt P24941, C177A/T182C); test: Kinetic thiol consumption assay with Cdk2 mutant T182C; assay type: binding; parameters: key to Rate enhancement, Cdk2 T182C: rate constant with Cdk2 ÷ rate constant with model thiol (fold); conditions: additional mutation C177A; for Rate constant with Cdk2 T182C: Protein: Cdk2, cysteine position T182C, in h^-1
T4 construct: poly-histidine; made in house; host or cells: E. coli
Outline: as §1

[1] = Kinetic thiol consumption assay with model thiol glutathione; assay type: physicochemical; parameters: Rate constant with glutathione (k(GSH)): unit not given here; conditions: for Rate constant with glutathione (k(GSH)): 500 μM ligand, 5 μM thiol, phosphate buffer pH 8; for Rate constant with Glutathione: Protein: Glutathione, cysteine position NA, in h-1
Outline: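 Rate constants for acrylamide reaction with 5 μM glutathione come from first-order exponential fits of normalized fluorescence decay (ex 380, em 470 nm). Reactions run in degassed phosphate buffer at pH 8 containing TCEP beads, room temperature.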

Cdk2[C177A, F80C, K278C] = molecular target: T5, Cdk2[C177A, F80C, K278C] (Homo sapiens, UniProt P24941, C177A/F80C/K278C); test: Kinetic thiol consumption assay with mutant Cdk2 as model thiol; assay type: binding; parameters: unit not given here; conditions: 500 μM ligand, 5 μM thiol, phosphate buffer pH 8
T5 construct: poly-histidine; made in house; host or cells: E. coli
Outline: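 Model thiol: His-tagged human Cdk2 C177A/F80C/K278C (two engineered surface cysteines), E. coli-expressed, 5 μM in degassed phosphate buffer pH 8 with immobilized TCEP beads (2% v/v). Fluorescence (ex/em 380/470 nm) followed over time at room temperature, normalized to DMSO/thiol control. First-order decay fit gives rate constants.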

Cdk2(S181C) (C177A) = molecular target: T6, Cdk2(S181C) (C177A) (Homo sapiens, UniProt P24941, C177A/S181C); test: Kinetic thiol consumption assay with Cdk2 mutant S181C; assay type: binding; parameters: key to Rate enhancement, Cdk2 S181C: rate constant with Cdk2 ÷ rate constant with model thiol (fold); conditions: additional mutation C177A; for Rate constant with Cdk2 S181C: Protein: Cdk2, cysteine position S181C, in h^-1
T6 construct: poly-histidine; made in house; host or cells: E. coli
Outline: as §1

Cdk2(H71C) (C177A) = molecular target: T7, Cdk2(H71C) (C177A) (Homo sapiens, UniProt P24941, C177A/H71C); test: Kinetic thiol consumption assay with Cdk2 mutant H71C; assay type: binding; parameters: key to Rate enhancement, Cdk2 H71C: rate constant with Cdk2 ÷ rate constant with model thiol (fold); conditions: additional mutation C177A; for Rate constant with Cdk2 H71C: Protein: Cdk2, cysteine position H71C, in h^-1
T7 construct: poly-histidine; made in house; host or cells: E. coli
Outline: as §1

[2] = molecular target: T8, human cyclin-dependent kinase 2 (Cdk2) (Homo sapiens, UniProt P24941); test: Kinetic thiol consumption assay with wild type Cdk2 (C177); assay type: binding; parameters: key to Rate enhancement, Cdk2 WT: k(Cdk2) divided by k(model thiol); Rate constant with Cdk2 (k(Cdk2)): unit not given here; conditions: for Rate constant with Cdk2 (k(Cdk2)): 500 μM ligand, 5 μM thiol, phosphate buffer pH 8; for Rate enhancement, Cdk2 WT: no additional mutations; for Rate constant with Cdk2 WT: Protein: Cdk2, cysteine position WT, in h^-1; for k(Cdk2)/k(Cdk2_mut) rate enhancement: model thiol Cdk2[C177A, F80C, K278C]; for k(Cdk2)/k(GSH) rate enhancement: model thiol glutathione
T8 construct: poly-histidine; made in house; host or cells: E. coli
Outline: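 His-tagged human Cdk2 (single surface cysteine C177), expressed in E. coli, or a model thiol at 5 μM in degassed phosphate buffer pH 8 was pre-treated with immobilized TCEP beads (2% v/v) before acrylamide addition. Fluorescence (ex/em 380/470 nm) was read after 1 h at room temperature, normalized to DMSO/thiol-only control and plotted versus time.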

Cdk2(C177A, F80C) = molecular target: T9, Cdk2(C177A, F80C) (Homo sapiens, UniProt P24941, C177A/F80C); test: Kinetic thiol consumption assay with Cdk2 mutant F80C, incl. kobs versus concentration (Kd, k2); assay type: binding; parameters: key to Rate enhancement, Cdk2 F80C: Cdk2 rate constant divided by model-thiol rate constant; conditions: additional mutation C177A; for Rate constant with Cdk2 F80C: Protein: Cdk2, cysteine position F80C, in h^-1
T9 construct: poly-histidine; made in house; host or cells: E. coli
Outline: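 His-tagged Cdk2(C177A/F80C) from E. coli or model thiol, 5 μM in degassed phosphate buffer pH 8 with TCEP beads, reacted with acrylamide ligands; fluorescence (ex/em 380/470 nm) normalized to DMSO control and fitted to first-order decay for kobs. Kd and k2 obtained from hyperbolic fit of kobs versus ligand concentration.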

Compound	Rate enhancement, Cdk2 S276C (Cdk2(S276C) (C177A))	Rate constant with Cdk2 S276C (Cdk2(S276C) (C177A))	Rate enhancement, Cdk2 R122C (Cdk2(R122C) (C177A))	Rate constant with Cdk2 R122C (Cdk2(R122C) (C177A))	Rate enhancement, Cdk2 N272 (Cdk2(N272C) (C177A))	Rate constant with Cdk2 N272C (Cdk2(N272C) (C177A))	Rate enhancement, Cdk2 T182C (Cdk2(T182C) (C177A))	Rate constant with Cdk2 T182C (Cdk2(T182C) (C177A))	Rate constant with glutathione (k(GSH)) [1]	Rate constant with Glutathione [1]	Rate constant with Cdk2[C177A, F80C, K278C] (k(Cdk2_mut)) (Cdk2[C177A, F80C, K278C])	Rate enhancement, Cdk2 S181C (Cdk2(S181C) (C177A))	Rate constant with Cdk2 S181C (Cdk2(S181C) (C177A))	Rate enhancement, Cdk2 H71C (Cdk2(H71C) (C177A))	Rate constant with Cdk2 (k(Cdk2)) [2]	Rate enhancement, Cdk2 WT [2]	Rate constant with Cdk2 WT [2]	k(Cdk2)/k(Cdk2_mut) rate enhancement [2]	k(Cdk2)/k(GSH) rate enhancement [2]	Rate enhancement, Cdk2 F80C (Cdk2(C177A, F80C))	other results
C=CC(=O)N1CCC(c2nc3ccccc3[nH]2)CC1 [EL-1152]	2.027	0.01203	0.7476	0.004438	0.326	0.001935	3.834	0.02276	0.00606	0.005936	0.0058	0.9565	0.005678	0.6643	0.00612	1.186	0.007039	1.055	1.009	0.816	Rate constant with Cdk2 H71C (Cdk2(H71C) (C177A)): 0.003943; Rate constant with Cdk2 F80C (Cdk2(C177A, F80C)): 0.004844
C=CC(=O)NC(C)c1cccc(N2CCOCC2)c1 (stereo not drawn) [EL-1153]	2.7205E−11	7.68E−14	0.9706	0.00274	4.534	0.0128	0.474	0.001338	0.00284	0.002823	0.00419	0.7428	0.002097	0	0.00103	0.3642	0.001028	0.2449	0.3619	0	
C=CC(=O)N1CCN(c2ccccc2C(N)=O)CC1 [EL-1155]	1.346	0.01513	0.5734	0.006445	1.099	0.01235	2.129	0.02393	0.00836	0.01124	0.00382	0.5376	0.006043	0.4653	0.00466	0.4144	0.004658	1.221	0.5575	0.3142	Rate constant with Cdk2 H71C (Cdk2(H71C) (C177A)): 0.00523; Rate constant with Cdk2 F80C (Cdk2(C177A, F80C)): 0.003532
C=CC(=O)N1CCN(c2cccc3cccnc23)CC1 [EL-1156]	1.35	0.02375	0.6879	0.0121	0.3397	0.005976	4.097	0.07206	0.01763	0.01759	0.02157	1	0.01759	0.3885	0.01873	1.065	0.01873	0.8683	1.062	1.015	Rate constant with Cdk2 H71C (Cdk2(H71C) (C177A)): 0.006834; Rate constant with Cdk2 F80C (Cdk2(C177A, F80C)): 0.01786
C=CC(=O)N1CCN(S(C)(=O)=O)CC1c1ccccc1 (stereo not drawn) [EL-1160]	0.7682	0.02201	0.2711	0.007767	0.5689	0.0163	2	0.05729	0.0286	0.02865	0.00414	0.4684	0.01342	0.9714	0.01181	0.4122	0.01181	2.854	0.4129	0.4705	Rate constant with Cdk2 H71C (Cdk2(H71C) (C177A)): 0.02783; Rate constant with Cdk2 F80C (Cdk2(C177A, F80C)): 0.01348
